The test system of experiment [1] is DabiOBP14. It counts as binding, Dioryctria abietella. The settings on record: for OBP14 F.D. (%) fluorescence displacement percent: ligand at 20 μM, DabiOBP14/1-NPN each 2 μM, Tris-HCl pH 7.4, NB = no binding; for Ki: competitive displacement of 1-NPN, three replicates, mean ± SE, read-out: OBP14 Ki (dissociation constant). The protocol: In the binding assays, we selected 100 compounds derived from host/non-host plants and man-made insecticides widely used for the control of lepidopteran pests, representing 88 general odorants (21 esters, 21 alcohols, 14 aldehydes, 13 alkenes, seven ketones, 11 alkanes and one acid) and 12 insecticides. These compounds and N-phenyl-1-naphthylamine (1-NPN) were purchased from Aladdin and Sigma-Aldrich, with the highest available purity. They were first diluted into 100 mM, using methanol (HPLC purity grade, ≥99.9%) as a stock solution. The concentrations of the work solution for each ligand and 1-NPN were set at 1 mM.
In order to measure the binding properties of the DabiOBPs to the 100 ligands, competitive binding assays were performed on a RF5301PC fluorescence spectrophotometer (Shimadzu, Japan). The concentrations of DabiOBPs and the fluorescent probe 1-NPN were set at 2 μM. The binding of DabiOBPs to 1-NPN in 20 mM Tris-HCl buffer (pH 7.4) was measured by adding final concentrations of 2–16 μM 1-NPN. Accordingly, binding constants (K1-NPN) of the DabiOBPs and 1-NPN were calculated using GraphPad Prism 7 (GraphPad Software Inc., San Diego, CA). The binding of the DabiOBPs to various ligands was conducted by adding different concentrations of ligands (2, 4, 6, 8, 12, 16 and 20 μM) into the DabiOBP5/1-NPN (each 2 μM) or DabiOBP14/1-NPN (each 2 μM) mixtures. For the ligands replacing over a half of 1-NPN fluorescence (50%) at 20 μM, three replicates were performed. The excitation wavelength was set at 337 nm and the emission peaks were recorded at around 400 nm. The dissociation constants (Ki) of the tested ligands to DabiOBPs were computed, using the equation: Ki = [IC50]/(1 + [1-NPN]/K1-NPN), where [1-NPN] was the free concentration of 1-NPN and IC50 was the concentration of ligands replacing 50% of 1-NPN fluorescence.

Experiment [2] concerns the target T1, DabiOBP5 (Dioryctria abietella, UniProt A0A8E6HS34).
T1 sequence (A0A8E6HS34 19-139): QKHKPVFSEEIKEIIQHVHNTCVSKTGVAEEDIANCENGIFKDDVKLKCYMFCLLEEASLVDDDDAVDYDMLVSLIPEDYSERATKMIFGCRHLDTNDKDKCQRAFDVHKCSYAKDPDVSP
Nature of the experiment: Competitive fluorescence binding assay with 1-NPN probe, recombinant DabiOBP5. The text has this:
In the binding assays, we selected 100 compounds derived from host/non-host plants and man-made insecticides widely used for the control of lepidopteran pests, representing 88 general odorants (21 esters, 21 alcohols, 14 aldehydes, 13 alkenes, seven ketones, 11 alkanes and one acid) and 12 insecticides. These compounds and N-phenyl-1-naphthylamine (1-NPN) were purchased from Aladdin and Sigma-Aldrich, with the highest available purity. […] The concentrations of the work solution for each ligand and 1-NPN were set at 1 mM.
In order to measure the binding properties of the DabiOBPs to the 100 ligands, competitive binding assays were performed on a RF5301PC fluorescence spectrophotometer (Shimadzu, Japan). The concentrations of DabiOBPs and the fluorescent probe 1-NPN were set at 2 μM. […] Accordingly, binding constants (K1-NPN) of the DabiOBPs and 1-NPN were calculated using GraphPad Prism 7 (GraphPad Software Inc., San Diego, CA). […] For the ligands replacing over a half of 1-NPN fluorescence (50%) at 20 μM, three replicates were performed. The excitation wavelength was set at 337 nm and the emission peaks were recorded at around 400 nm.

Setting [3] is: ligand at 20 μM; DabiOBP5/1-NPN each 2 μM; Tris-HCl pH 7.4; NB = no binding; read-out: OBP5 F.D. (%) fluorescence displacement percent.
Setting [4] is: ligand at 20 μM; DabiOBP5/1-NPN each 2 μM; Tris-HCl pH 7.4; NB = no binding.
Setting [5] is: pH 7.4, read-out: OBP5 F.D. (%) fluorescence displacement percent.
Setting [6] is: read-out: OBP5 Ki (dissociation constant); competitive displacement of 1-NPN; three replicates; mean ± SE.

Values joined by “and” are separate entries in the source; they are usually repeats but may differ in a detail not shown here. Identical values can stand only once. Like-named read-outs stand apart in the source and are kept apart here.

The values that follow come from paper PMC9781003, “Two Antenna-Enriched Odorant Binding Proteins in Dioryctria abietella Tuned to General Odorants and Insecticides” (Insects, 2022).

In the case of `CCOC(C)=O` [Ethyl acetate], in experiment [1], the “OBP14 F.D. (%) fluorescence displacement percent” value worked out at 23.29%. In addition, the inhibition at 20 µM in experiment [2] (setting [3]) came out at 19%.
Take `CCOC(=O)c1ccccc1` [Ethyl benzoate]: the “OBP14 F.D. (%) fluorescence displacement percent” value in experiment [1] worked out at 30.02%. In addition, the inhibition at 20 µM in experiment [2] (setting [3]) was found to be 29.4%.
The like results for `CCCC(=O)OCC` [Ethyl butyrate] were, in that order, 31.72% and 32%.
The like results for `CCCCCC(=O)OCC` [Ethyl hexanoate] were, in that order, 29.43% and 24.2%.
Regarding `CCCCC/C=C\C=C\C(=O)OCC` [Ethyl-(2E,4Z)-decadienoate], the Ki (commonly a dissociation constant, usually derived from enzyme kinetics or from competition with a known ligand) in experiment [1] (listed as ethyl-(2E,4Z)-decadienoate) was below 13 µM; in experiment [1], 6.45 ± 0.43 µM; in experiment [2] (competitive displacement of 1-NPN; three replicates; mean ± SE; listed as ethyl-(2E,4Z)-decadienoate; read-out: OBP5 Ki (dissociation constant)), below 13 µM; in experiment [2] (competitive displacement of 1-NPN; three replicates; mean ± SE; read-out: OBP5 Ki (dissociation constant)), 5.67 ± 0.55 µM. Moreover, the “OBP14 F.D. (%) fluorescence displacement percent” value in experiment [1] was 68.07%. Besides, the “OBP5 F.D. (%) fluorescence displacement percent” value in experiment [2] (setting [4]) was 69.83%.
With `CC(C)=CCC/C(C)=C/CC/C(C)=C/CO` [Farnesol], in experiment [1], the “OBP14 F.D. (%) fluorescence displacement percent” value was 36.20%. The inhibition at 20 µM in experiment [2] (setting [3]) worked out at 36.3%.
For `N#Cc1nn(-c2c(Cl)cc(C(F)(F)F)cc2Cl)c(N)c1[S+]([O-])C(F)(F)F` (stereo not drawn) [Fipronil], the “OBP14 F.D. (%) fluorescence displacement percent” value in experiment [1] is on record as 29.70%. Moreover, the inhibition at 20 µM in experiment [2] (setting [3]) worked out at 23.7%.
The like results for `CC(C)=CCC/C(C)=C/CO` [Geraniol] were, in that order, 28.67% and 32.9%.
The like results for `CC(=O)OC/C=C(\C)CCC=C(C)C` [Geranyl acetate] were, in that order, 27.39% and 26.5%.
Taken in the same sequence, the figures for `CCCCCCC=O` [Heptanal] were 25.87% and 42.5%.
With `CCCCCCC` [Heptane], the “OBP14 F.D. (%) fluorescence displacement percent” value in experiment [1] came to 22.91%. In experiment [2] (setting [3]), the inhibition at 20 µM is 31.4%.
On to `CCCCCCCOC(C)=O` [Heptyl acetate], for which the “OBP14 F.D. (%) fluorescence displacement percent” value in experiment [1] stood at 33.70%. In experiment [2] (setting [3]), the inhibition at 20 µM came to 41%.
Taken in the same sequence, the figures for `CCCCCC=O` [Hexanal] were 32.96% and 39.3%.
Taken in the same sequence, the figures for `CCCCCCOC(C)=O` [Hexyl acetate] were 29.22% and 23.7%.
The like results for `O=[N+]([O-])NC1=NCCN1Cc1ccc(Cl)nc1` [Imidacloprid] were, in that order, 39.56% and 22.5%.
In the case of `CCCCCCCCCCCC(=O)O` [Lauric acid], in experiment [1], the “OBP14 F.D. (%) fluorescence displacement percent” value was found to be 30.18%. Moreover, in experiment [2] (setting [4]), the “OBP5 F.D. (%) fluorescence displacement percent” value was determined as 33.87%.
Turning to `C=C(C)[C@H]1CC=C(C)CC1` [Limonene], the “OBP14 F.D. (%) fluorescence displacement percent” value in experiment [1] amounted to 30.81%. In addition, the “OBP5 F.D. (%) fluorescence displacement percent” value in experiment [2] (setting [4]) worked out at 38.31%.
In the case of `C=CC(C)(O)CCC=C(C)C` (stereo not drawn) [Linalool], the “OBP14 F.D. (%) fluorescence displacement percent” value in experiment [1] is listed as 31.71%. Moreover, the inhibition at 20 µM in experiment [2] (setting [3]) stood at 33.3%.
Taken in the same sequence, the figures for `O=C1CCC[C@@H]2[C@H]3CCCN4CCC[C@@H](CN12)[C@@H]34` [Matrine] were 29.59% and 29%.
For the molecule `COC(C)=O` [Methyl acetate], the “OBP14 F.D. (%) fluorescence displacement percent” value in experiment [1] is reported as 27.21%. Besides, in experiment [2] (setting [4]), the “OBP5 F.D. (%) fluorescence displacement percent” value came out at 27.62%.
Take `COC(=O)c1ccccc1` [Methyl benzoate]: the “OBP14 F.D. (%) fluorescence displacement percent” value in experiment [1] was determined as 30.65%. Further, the inhibition at 20 µM in experiment [2] (setting [3]) amounted to 30.5%.
The like results for `CCCCCCCCCCCC(=O)OC` [Methyl laurate] were, in that order, 12.60% and 7.25%.
`C=CC(=C)CCC=C(C)C` [Myrcene]: the “OBP14 F.D. (%) fluorescence displacement percent” value in experiment [1] is given as 34.84%. Further, the inhibition at 20 µM in experiment [2] (setting [3]) is 37.1%.
The like results for `CCCCCCCCCCCCCCCCCCC` [Nonadecane] were, in that order, 15.30% and 27.7%.
Taken in the same sequence, the figures for `CCCCCCCCC=O` [Nonanal] were 23.55% and 31.5%.
On to `CCCCCCCCCOC(C)=O` [Nonyl acetate], for which the “OBP14 F.D. (%) fluorescence displacement percent” value in experiment [1] amounted to 22.98%. The inhibition at 20 µM in experiment [2] (setting [3]) stood at 16.5%.
Take `C=CC(C)=CCC=C(C)C` [Ocimene]: the “OBP14 F.D. (%) fluorescence displacement percent” value in experiment [1] was determined as 33.18%. Besides, the “OBP5 F.D. (%) fluorescence displacement percent” value in experiment [2] (setting [4]) is recorded as 33.97%.
Regarding `CCCCCCCCCCCCCCCCCC` [Octadecane], in experiment [1], the “OBP14 F.D. (%) fluorescence displacement percent” value is 23.94%. Moreover, in experiment [2] (setting [3]), the inhibition at 20 µM came to 26.5%.
Taken in the same sequence, the figures for `CCCCCCCC=O` [Octanal] were 34.48% and 35.6%.
Taken in the same sequence, the figures for `CCCCCCCCOC(C)=O` [Octyl acetate] were 30.09% and 35.4%.
Taken in the same sequence, the figures for `OCCc1ccccc1` [Phenethyl alcohol] were 10.00% and 37.6%.
Regarding `O=C(Oc1ccccc1)c1ccccc1` [Phenyl benzoate], the “OBP14 F.D. (%) fluorescence displacement percent” value in experiment [1] came to 34.36%. Also, the inhibition at 20 µM in experiment [2] (setting [3]) is 31.7%.
Turning to `O=CCc1ccccc1` [Phenylacetaldehyde], the “OBP14 F.D. (%) fluorescence displacement percent” value in experiment [1] is reported as 33.05%. Also, in experiment [2] (setting [3]), the inhibition at 20 µM turned out to be 29.1%.
Consider `CCOP(=S)(OCC)O/N=C(\C#N)c1ccccc1` [Phoxim], for which the Ki in experiment [1] (listed as phoxim) was below 13 µM; in experiment [1] it was 2.38 ± 0.28 µM; in experiment [2] (setting [6]) it was < 13 µM and 2.89 µM. The “OBP14 F.D. (%) fluorescence displacement percent” value in experiment [1] was determined as 89.62%. Further, the inhibition at 20 µM in experiment [2] (setting [5]) turned out to be 82%.
Consider `CCCOC(C)=O` [Propyl acetate], for which, in experiment [1], the “OBP14 F.D. (%) fluorescence displacement percent” value was 25.46%. Moreover, the inhibition at 20 µM in experiment [2] (setting [3]) is 31.4%.
For the molecule `C=C(C)[C@H]1Cc2c(ccc3c2O[C@@H]2COc4cc(OC)c(OC)cc4[C@@H]2C3=O)O1` [Rotenone], the Ki in experiment [1] was < 13 µM and 10.2 µM; in experiment [2] (setting [6]) it was < 13 µM and 12.7 µM. Moreover, the “OBP14 F.D. (%) fluorescence displacement percent” value in experiment [1] came to 58.66%. In addition, the inhibition at 20 µM in experiment [2] (setting [5]) amounted to 56%.
As to `CC(C)=CCC/C(C)=C/CC/C(C)=C/CC/C=C(\C)CC/C=C(\C)CCC=C(C)C` [Squalene], the “OBP14 F.D. (%) fluorescence displacement percent” value in experiment [1] was 24.81%. Further, the inhibition at 20 µM in experiment [2] (setting [3]) came out at 32.3%.
As for `COc1cc(C=O)cc(OC)c1O` [Syringaldehyde], the “OBP14 F.D. (%) fluorescence displacement percent” value in experiment [1] is reported as 34.32%. Further, the inhibition at 20 µM in experiment [2] (setting [3]) amounted to 38.5%.
The like results for `CCCCCCCCCCCCCC` [Tetradecane] were, in that order, 27.13% and 25%.
Taken in the same sequence, the figures for `CCCCCCCCCCCCCCCCCCCCCCC` [Tricosane] were 27.90% and 32.8%.
The like results for `CCCCCCCCCCC=O` [Undecanal] were, in that order, 35.28% and 27.8%.
As to `CCCCCCCCCCC` [Undecane], the “OBP14 F.D. (%) fluorescence displacement percent” value in experiment [1] came to 6.47%. Moreover, the inhibition at 20 µM in experiment [2] (setting [3]) came out at 4.42%.
